This passage reports ED50, IC50 and ED₅₀ results from patent EP0318859A2, “N-substituted mercaptopropanamide derivatives” (Dainippon Pharmaceutical Co., Ltd., priority 1987, dated 1989).

Structures are written as SMILES.

In one assay the test system is Female Std:ddy mice. The assay is described as follows: Analgesic activity (mouse phenylquinone writhing test). The assay is classed as in vivo. Particulars: po, 30 minutes before i.p. phenylquinone, reduction in writhes greater than 50 % of vehicle control = effective, Litchfield and Wilcoxon, read-out: ED₅₀. As to the method: (1) Analgesic activity (mouse phenylquinone writhing test)
Female Std:ddy mice (weighing 18 - 22 g) were used. Each animal was given intraperitoneally 10 ml/kg of 0.03 % phenylquinone in 5 % aqueous ethanol, and the number of writhes was counted for 15 minutes, beginning 5 minutes after the injection of phenylquinone. Test compounds, suspended or dissolved in 0.5 % gum tragacanth aqueous solution, were given orally 30 minutes before the injection of phenylquinone. A reduction in writhes counts greater than 50 % of the vehicle control value was considered to be effective. The ED₅₀-value was calculated from the effective rate according to the method of Litchfield and Wilcoxon.

For assay [1], the target named is T1, enkephalinase (Rattus norvegicus, UniProt P07861).
T1 construct: Male Std:Wistar rats were decapitated and the striata were removed; from tissue; host or cells: rat striatum (membrane pellet, solubilised with 1 % Triton X-100, DEAE-cellulose fraction)
T1 sequence (P07861 1-750): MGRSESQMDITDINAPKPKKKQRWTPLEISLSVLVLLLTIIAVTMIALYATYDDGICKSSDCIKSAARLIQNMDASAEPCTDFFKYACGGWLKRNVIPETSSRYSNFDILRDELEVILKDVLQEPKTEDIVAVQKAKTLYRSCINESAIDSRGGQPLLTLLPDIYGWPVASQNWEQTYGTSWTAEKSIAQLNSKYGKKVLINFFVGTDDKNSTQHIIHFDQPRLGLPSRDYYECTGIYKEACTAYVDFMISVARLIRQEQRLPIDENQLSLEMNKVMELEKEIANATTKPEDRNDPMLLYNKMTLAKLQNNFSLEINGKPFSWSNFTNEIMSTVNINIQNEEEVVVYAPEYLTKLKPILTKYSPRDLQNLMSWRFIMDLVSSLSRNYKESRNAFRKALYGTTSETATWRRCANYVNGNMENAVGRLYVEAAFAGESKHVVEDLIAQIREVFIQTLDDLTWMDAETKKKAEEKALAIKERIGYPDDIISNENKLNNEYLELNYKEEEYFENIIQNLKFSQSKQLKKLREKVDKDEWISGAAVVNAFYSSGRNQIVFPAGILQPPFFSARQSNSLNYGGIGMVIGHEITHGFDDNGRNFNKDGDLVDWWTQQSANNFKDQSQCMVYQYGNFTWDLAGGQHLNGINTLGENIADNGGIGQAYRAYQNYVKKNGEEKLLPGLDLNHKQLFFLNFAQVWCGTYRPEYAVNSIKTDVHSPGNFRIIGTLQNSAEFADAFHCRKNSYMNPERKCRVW
Put plainly: Enkephalinase inhibitory activity in vitro ([³H]-leucine-enkephalin degradation). Format: biochemical, rats. Particulars: rat striatum enkephalinase; substrate [³H]-leucine-enkephalin 20 nM; 1 hour at 37°C; read-out: IC₅₀. As to the method: (3) Enkephalinase inhibitory activity in vitro
Enkephalin degrading enzymes were separated according to the method described by Gorenstein and Snyder (Life Science, 25, 2065 (1979)).
Male Std:Wistar rats were decapitated and the striata were removed. These were homogenized in 30 volumes of 50 mM Tris-HCl buffer (pH 7.4) and centrifuged for 15 minutes at 1,000 x g. The supernatant was centrifuged for 15 minutes at 50,000 x g. The pellet was washed three times with the same buffer and then suspended in 15 volumes of 50 mM Tris-HCl buffer (pH 7.4) containing 1 % Triton X-100, followed by incubation for 45 minutes at 37°C. After centrifugation for 1 hour at 100,000 x g, the supernatant was applied onto DEAE-cellulose ion exchange chromatography column. The fraction containing enkephalin dipeptidylcarboxypeptidase was used as enkephalinase sample.
(ii) Measurement of inhibitory activity
After preincubation of test compound and enkephalinase for 5 minutes at 37°C, [³H]-leucine-enkephalin (substrate) was added to the reaction mixture and then the mixture was incubated for 1 hour at 37°C (final volume: 100 µl, final concentration of substarate: 20 nM). Ice-cold 0.2N HCl was added to the mixture to stop the reaction. Substrate and metabolites were separated with TLC and Porapak Q® column by the method of Vogel and Alstein [FEBS Letters, 80, 332 (1977)]. Enzyme activity was estimated from the production rate of [³H]-Tyr-Gly-Gly. The IC₅₀-value of test compounds was calculated from the inhibitory rates, estimated from the difference between the enzyme activities in the absence and the presence of test compound.

Assay [2] relates to enkephalinase. The assay is described as follows: Enkephalinase inhibitory activity in vivo (potentiation of the analgesic activity of DAME, tail pressure pain). The following applies: p.o., 30 minutes before intracisternal DAME; pressure pain threshold measured 5 minutes after DAME; male Std:ddy mice. Here is the method: (2) Enkephalinase inhibitory activity in vivo
(Potentiation of the analgesic activity of DAME)
Pressure pain was induced by pressing the tail of male Std:ddy mice (weighing 20 - 26 g) using an apparatus for pressure measurement. The pressure pain threshold (biting response) was measured as mm. Test compound, dissolved or suspended in 0.5 % gum tragacanth aqueous solution, was given orally 30 minutes before intracisternaly administration of D-Ala²-Met⁵-enkephalin (DAME). Five minutes after administration of DAME, the pressure pain threshold was measured, and the potentiation activity of test compounds on the analgesic effect of DAME was tested.

For the compound `CC(=O)SCC(Cc1ccccc1)C(=O)Nc1cc(C)cc(C(=O)O)c1` (stereo not shown) [Example 1, 3-[(2-acetylthiomethyl-3-phenylpropionyl)amino]-5-methylbenzoic acid], the ED50 in the assay with Female Std:ddy mice was determined as 22.3 mg/kg.
On to `Cc1c(NC(=O)C(CS)Cc2ccccc2)cccc1C(=O)O` (stereo not shown) [Example 7, 3-[(2-mercaptomethyl-3-phenylpropionyl)amino]-2-methylbenzoic acid], for which, at enkephalinase [1], the IC50 is 7.5 nM. For the same compound, the ED50 with Female Std:ddy mice is 17.9 mg/kg. The ED₅₀ in the assay with enkephalinase [2] stood at 38.3 mg/kg.
With `CC(=O)SCC(Cc1ccccc1)C(=O)Nc1cccc(C(=O)O)c1C` (stereo not shown) [Example 3, 3-[(2-acetylthiomethyl-3-phenylpropionyl)amino]-2-methylbenzoic acid], the ED50 in the assay on Female Std:ddy mice was 21.6 mg/kg.
As for `Cc1cc(NC(=O)C(CS)Cc2ccccc2)cc(C(=O)O)c1` (stereo not shown) [Example 2, 3-[(2-mercaptomethyl-3-phenylpropionyl)amino]-5-methylbenzoic acid], the IC50 on enkephalinase [1] amounted to 5.4 nM. Moreover, the ED50 with Female Std:ddy mice is 16.6 mg/kg. Besides, the ED₅₀ with enkephalinase [2] was 20.2 mg/kg.
With `CCc1cc(NC(=O)C(CS)Cc2ccccc2)cc(C(=O)O)c1` (stereo not shown) [Example 65, 3-[(2-mercaptomethyl-3-phenylpropionyl)amino]-5-ethylbenzoic acid], the IC50 at enkephalinase [1] was 4.6 nM. For the same compound, the ED50 in the assay with Female Std:ddy mice came to 22.9 mg/kg.
For `Cc1c(NC(=O)C(CS)CC(C)C)cccc1C(=O)O` (stereo not shown) [Example 187, 3-[(2-mercaptomethyl-4-methylpentanoyl)amino]-2-methylbenzoic acid] the same measures were 7.8 nM and 20.1 mg/kg.
With `CC(=O)SCC(CC(C)C)C(=O)Nc1cccc(C(=O)O)c1C` (stereo not shown) [Example 175, 3-[(2-acetylthiomethyl-4-methylpentanoyl)amino]-2-methylbenzoic acid], in the assay with Female Std:ddy mice, the ED50 was 21.1 mg/kg.
On the same count and under the same terms, the same measure for `CC(=O)SCC(CC(C)C)C(=O)Nc1cc(C)cc(C(=O)O)c1` (stereo not shown) [Example 176, 3-[(2-acetylthiomethyl-4-methylpentanoyl)amino]-5-methylbenzoic acid]: 22.9 mg/kg.
Regarding `CCc1cc(NC(=O)C(CSC(C)=O)Cc2ccccc2)cc(C(=O)O)c1` (stereo not shown) [Example 64, 3-[(2-acetylthiomethyl-3-phenylpropionyl)amino]-5-ethylbenzoic acid], the ED50 in the assay on Female Std:ddy mice amounted to 11 mg/kg. In addition, in the assay on enkephalinase [2], the ED₅₀ is 20.8 mg/kg.
Turning to `O=C(O)CNC(=O)C(CS)Cc1ccccc1` (stereo not shown) [Thiorphan, [(D,L)-2-mercaptomethyl-3-phenylpropionyl]glycine, reference compound], the ED50 in the assay with Female Std:ddy mice was 137 mg/kg.
`CC(C)CC(CS)C(=O)Nc1cccc(C(=O)O)c1` (stereo not shown) [Example 186, 3-[(2-mercaptomethyl-4-methylpentanoyl)amino]benzoic acid]: at enkephalinase [1], the IC50 stood at 8.4 nM. Also, the ED50 in the assay with Female Std:ddy mice is 15 mg/kg.
